Biological target: Cathepsin D (Homo sapiens, UniProt P07339)
Assay: Assay 3: cathepsin D inhibition activity (non-cellular assay, chromogenic substrate)
Type: biochemical
Set-up: Frozen human placental tissue was thawed and homogenized; from tissue; host or cells: human placenta
Conditions: 4 µM test compound; inhibition of initial rate relative to control; cathepsin D from human placental tissue
Procedure: A third non-cellular assay for determining in vitro aspartyl protease inhibitory activity is generally described in Jupp, R.A. et al., (1990) Biochem. J., 265:871-878 and Rao et al., J. Med. Chem. (1993), in press. The assay is carried out by incubating a test compound with a suitable aspartyl protease, such as cathepsin D, in the presence of a chromogenic substrate. The inhibition constant, Ki, value may then be determined by quantifying the competitive inhibition of the hydrolysis of the chromogenic substrate. A variety of chromogenic substrates that are useful for assaying aspartyl protease activity are discussed in Dunn, et al., (1986) Biochem. J., 237:899-906. A preferred chromogenic substrate for a cathepsin D assay is disclosed in Scarborough, P.E. et al., Protein Science, (1993), 2:264-276.
Concentrations of substrate solutions and cleavage products may be verified using amino acid analysis. The enzyme preparations may be titrated with a tightly binding inhibitor to quantitate the active concentration of the enzyme. Enzyme concentrations are typically in the range of from 1-6 nM. Stock solutions of the test compound are prepared at concentrations ranging from 1.0 to 5.0 mg/mL, and then 50-100 µL portions of these stock solutions may be further diluted to a concentration in the range of 5 to 300 µM for rate determinations.
[…] Then, the test compounds are assayed over a concentration range of, for example, 5 to 300 µM for rate determinations.
A decrease in absorbance in the range of 284-324 nm may be monitored using a spectrophotometer. Absorbance readings are typically taken at various timepoints. The initial velocities are then plotted versus the initial substrate concentration. […] Estimates of Ki may then be determined using the Dixon construction. Dixon, M., (1953) Biochem J., 55:170-171.
If the ratio of the total active enzyme concentration to the estimated Ki value ([E]t/Ki) is less than 0.2, then the precise Ki value may be computed by using a non-linear curve fitting program based on the equation: v= Vmax [S]/[S] + Km (1 + [I]/Ki ) [formula] where v is the initial rate, [S] is the initial substrate concentration, [I] is the inhibitor concentration and Km and Ki are defined above. […] P.J.F., (1972) Biochem J., 127:321-333. This Assay is exemplfied in Assay 3.
The homogenate was centrifuged at 10,000 rpm for 30 minutes in a Sorvall GSA rotor. The supernatant was adjusted to pH 3.7 using 5.7N HCl and then sodium acetate was added to a concentration of 0.1M. The resultant mixture was incubated for 30 minutes at 0°C, resulting in the formation of a precipitate. This precipitate was removed by centrifugation (30 minutes, 10,000 rpm). The acidic supernatent was applied to a chromatography column (pepstatinyl agarose equilibrated with 0.1M sodium acetate, pH 3.5, 0.1% Brij 35, and 1M NaCl), washed until the OD₂₈₀ of the effluent returned to baseline, and then eluted with 50mM Tris-HCl, pH 8.6, 0.1% Brij 35, and 1M NaCl. The eluent was dialyzed against 10mM sodium phosphate, pH 7.0, 0.1% Brij 35, and 0.1M NaCl, and then applied to a 1 mL DEAE-Sephacel column equilibrated with the same buffer. Cathepsin D was recovered in the breakthrough fraction.
The enzyme mixture (125 µL buffer (0.1M sodium formate at pH 3.7), 1 µL of a 1mM solution of test compound, 4 µL of DMSO, enzyme and water to provide a total volume of 230 µL) was vortexed and prewarmed for four minutes before the addition of the chromogenic substrate. After warming, the enzyme mixture was added to 20 µL of a […] dilution of substrate solution. A control reaction mixture was similarly prepared without the addition of the test compound. The percent of inhibition of the initial rate of reaction in the presence of a particular concentration of test compound (i.e. 4 µM) may be determined for the test compound by monitoring the reaction mixture in parallel to the control reaction. […]

Sequence of Cathepsin D (P07339 169-412 limits assumed): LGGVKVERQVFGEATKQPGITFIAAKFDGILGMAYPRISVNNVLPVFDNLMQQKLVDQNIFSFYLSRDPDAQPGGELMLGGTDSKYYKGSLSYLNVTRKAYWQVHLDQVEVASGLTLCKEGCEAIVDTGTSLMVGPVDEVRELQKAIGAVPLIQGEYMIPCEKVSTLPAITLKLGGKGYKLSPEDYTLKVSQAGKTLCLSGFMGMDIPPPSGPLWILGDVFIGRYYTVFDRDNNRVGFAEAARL
Sequence of Cathepsin D (P07339 65-162 limits assumed): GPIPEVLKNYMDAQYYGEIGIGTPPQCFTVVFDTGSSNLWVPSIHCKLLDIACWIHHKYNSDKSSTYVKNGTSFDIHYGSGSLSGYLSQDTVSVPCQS

% inhibition at 4µ M	Molecule
32%	[1S-(1R*,4R*,5S*)]-N-(1-(2-Amino-2-oxoethyl)-2-oxo-3-aza-4-phenylmethyl-5-hydroxy-6-(2-(1-t-butylamino-1- oxomethyl)phenyl)hexyl)-2-(6,7,8,9-tetrahydronaphthyl) carboxamide [Example 11]

Same assay, conditions: 4 µM test compound; inhibition of initial rate relative to control; cathepsin D from human placental tissue; read-out: % inhibition at 4µ M

Molecule	inhibition at 4 µM
CC(C)(C)NC(=O)c1ccccc1C[C@@H](O)[C@H](Cc1ccccc1)NC(=O)[C@H](CC(=O)O)NC(=O)c1ccc2ccccc2n1 [Example 15, [1S-(1R*,R*,5S*)]-N-(1-(2-Hydroxy-2-oxoethyl)-2-oxo-3-aza-4-phenylmethyl-5-hydroxy-6-(2-(1-t-butylamino-1-oxomethyl)phenyl)hexyl)-2-quinolinyl carboxamide]	49%
CC(C)(C)NC(=O)c1ccccc1C[C@@H](O)[C@H](Cc1ccccc1)NC(=O)[C@H](CC(=O)NCc1ccccn1)NC(=O)c1ccc2ccccc2n1 [Example 16, [1S-(1R*,4R*,5S*)]-N-(1-(2-(N-2-Pyridylmethyl)amino)-2-oxoethyl]-2-oxo-3-aza-4-phenylmethyl-5-hydroxy-6-(2-(1-t-butylamino-1-oxomethyl)phenyl)hexyl)-2-quinolinyl carboxamide]	36%
CC(C)(C)NC(=O)c1ccccc1C[C@@H](O)[C@H](Cc1ccccc1)NC(=O)[C@H](Cc1c[nH]cn1)NC(=O)[C@H](Cc1cccc2ccccc12)NC(=O)OC(C)(C)C [Example 27, [2R-(2R*,3S*,6S*,9S*)]-N-t-Butyl-2-[2-hydroxy-3-phenylmethyl-4,7-diaza-5,8-dioxo-6-(imidazol-4-ylmethyl)-9-N(t-butoxycarbonyl)amino-10-naphth-1-yl]decyl benzamide]	40%
CC(C)(C)NC(=O)c1ccccc1C[C@@H](O)[C@H](Cc1ccccc1)NC(=O)[C@H](Cc1cnc[nH]1)NC(=O)[C@@H](Cc1cccc2ccccc12)NC(=O)OC(C)(C)C [Example 28, [2R-(2R*,3S*,6S*,9R*)]-N-t-Butyl-2-[2-hydroxy-3-phenylmethyl-4,7-diaza-5,8-dioxo-6-(imidazol-4-ylmethyl)-9-N(t-butoxycarbonyl)amino-10-naphth-1-yl]decyl benzamide]	6%
CC(C)(C)NC(=O)c1ccccc1C[C@@H](O)[C@H](Cc1ccccc1)NC(=O)[C@H](CC(N)=O)NS(=O)(=O)CCc1cccc2ccccc12 [Example 32, [2R-(2R*,3S*,6S*)]-N-t-Butyl-2-[2-hydroxy-3-phenylmethyl-4-aza-5-oxo-6-N(naphth-1-ylethylsulfonyl)amino-7-carbamoyl]heptyl benzamide]	12%

Second part, the molecule after the results:

inhibition at 4 µM	Molecule
48%	CC(C)(C)NC(=O)c1ccccc1C[C@@H](O)[C@H](Cc1ccccc1)NC(=O)[C@H](CC(N)=O)NC(=O)c1cc(Cl)c2ccccc2n1 [Example 19, [1S-(1R*,4R*,5S*)]-N-(1-(2-Amino-2-oxoethyl)-2-oxo-3-aza-4-phenylmethyl-5-hydroxy-6-(2-(1-t-butylamino-1-oxomethyl)phenyl)hexyl)-4-chloroquinolin-2-yl carboxamide]
43%	CC(C)(C)NC(=O)c1ccccc1C[C@@H](O)[C@H](Cc1ccccc1)NC(=O)[C@@H](CC(=O)O)NS(C)(=O)=O [Example 31, [2R-(2R*,3S*,6R*)]-N-t-Butyl-2-[2-hydroxy-3-phenylmethyl-4-aza-5-oxo-6-N(methylsulfonyl)amino-7-carboxy]heptyl benzamide]

Same assay, conditions: cathepsin D from human placental tissue, chromogenic substrate, pH 3.7, 37°C

Molecule	Ki
CC(C)(C)NC(=O)c1ccccc1CC(O)C(Cc1ccccc1)NC(=O)C(CC(=O)NCc1ncc[nH]1)NC(=O)c1ccc2ccccc2n1 (stereo not drawn) [Example 17, [1S-(1R*,4R*,5S*)]-N-(1-(2-(N-2-Imidazolylmethyl)amino)-2-oxoethyl)-2-oxo-3-aza-4-phenylmethyl-5-hydroxy-6-(2-(1-t-butylamino-1-oxomethyl)phenyl)hexyl)-2-quinolinyl carboxamide]	2300 ± 200 nM
CC(C)(C)NC(=O)c1ccccc1C[C@@H](O)[C@H](Cc1ccccc1)NC(=O)[C@H](CC(=O)NCc1nc2ccccc2[nH]1)NC(=O)c1ccc2ccccc2n1 [Example 18, [1S-(1R*,4R*,5S*)]-N-(1-(2-(N-2-Benzimidazolylmethyl)amino)-2-oxoethyl)-2-oxo-3-aza-4-phenylmethyl-5-hydroxy-6-(2-(1-t-butylamino-1-oxomethyl)phenyl)hexyl)-2-quinolinyl carboxamide]	2200 ± 200 nM
CC(C)(C)NC(=O)c1ccccc1CC(O)C(Cc1ccccc1)NC(=O)C(CC(N)=O)NC(=O)C(Cc1cccc2ccccc12)NC(=O)OC(C)(C)C (stereo not drawn) [Example 25, [2R-(2R*,3S*,6S*,9R*)]-N-t-Butyl-2-[2-hydroxy-3-phenylmethyl-4,7-diaza-5,8-dioxo-6-(2-amino-2-oxoethyl)-9-N(t-butoxycarbonyl)amino-10-naphth-1-yl]decyl benzamide]	1440 ± 260 nM
CC(C)(C)NC(=O)c1ccccc1CC(O)C(Cc1ccccc1)NC(=O)C(CC(N)=O)NC(=O)C(Cc1cccc2ccccc12)NC(=O)OC(C)(C)C (stereo not drawn) [Example 26, [2R-(2R*,3S*,6S*,9S*)]-N-t-Butyl-2-[2-hydroxy-3-phenylmethyl-4,7-diaza-5,8-dioxo-6-(2-amino-2-oxoethyl)-9-N(t-butoxycarbonyl)amino-10-naphth-1-yl]decyl benzamide]	2300 ± 410 nM

Next, values leading:

Ki	Molecule
900 ± 100 nM	CC(C)(C)NC(=O)c1ccccc1CC(O)C(Cc1ccccc1)NC(=O)C(CC(N)=O)NC(=O)c1ccc2cccc(C(F)(F)F)c2n1 (stereo not drawn) [Example 22, [1S-(1R*,4R*,5S*)]-N-(1-(2-Amino-2-oxoethyl)-2-oxo-3-aza-4-phenylmethyl-5-hydroxy-6-(2-(1-t-butylamino-1-oxomethyl)phenyl)hexyl)-8-trifluoromethyl-quinolin-2-yl carboxamide]
23 ± 3 nM	CC(C)C(NC(=O)OCc1ccccc1)C(=O)NC(Cc1ccccc1)C(O)C(O)C(Cc1ccccc1)NC(=O)C(NC(=O)OCc1ccccc1)C(C)C [Example 33, 1,6-Diphenyl-2(S),5(S)-di[N-[2(S)-N(benzyloxycarbonyl)amino-3-methyl-butanoyl]amino]-3,4-dihydroxyhexane]
18 nM	CC(C)C(NC(=O)OCc1ccc2ccccc2n1)C(=O)NC(Cc1ccccc1)C(O)C(O)C(Cc1ccccc1)NC(=O)C(NC(=O)OCc1ccc2ccccc2n1)C(C)C [Example 34, 1,6-Diphenyl-2(S),5(S)-di[N-[2(S)-N(quinolin-2-ylmethoxycarbonyl)amino-3-methylbutanoyl]amino]-3,4-dihydroxyhexane]
86 nM	CC(C)C(NC(=O)OCc1ccccn1)C(=O)NC(Cc1ccccc1)C(O)C(O)C(Cc1ccccc1)NC(=O)C(NC(=O)OCc1ccccn1)C(C)C [Example 35, 1,6-Diphenyl-2(S),5(S)-di[N-[2(S)-N(pyrid-2-ylmethoxycarbonyl)amino-3-methylbutanoyl]amino]-3,4-dihydroxyhexane]
